The source of these data is US8211895B2, “Capped pyrazinoylguanidine sodium channel blockers” (Parion Sciences, Inc., priority 2005, dated 2012).

In series [1] the test system is airway epithelial sodium currents in canine bronchial epithelia (ENaC). As to the kind of experiment: In vitro measure of sodium channel blocking activity (short circuit current, Ussing chambers). The format is cell-based. Particulars: potency in canine bronchial epithelia, reported as fold-enhancement relative to amiloride. The procedure: In Vitro Measure of Sodium Channel Blocking Activity and Reversibility One assay used to assess mechanism of action and/or potency of the compounds of the present invention involves the determination of lumenal drug inhibition of airway epithelial sodium currents measured under short circuit current (ISC) using airway epithelial monolayers mounted in Ussing chambers. Cells obtained from freshly excised human, dog, sheep or rodent airways are seeded onto porous 0.4 micron Snapwell™ Inserts (CoStar), cultured at air-liquid interface (ALI) conditions in hormonally defined media, and assayed for sodium transport activity (ISC) while bathed in Krebs Bicarbonate Ringer (KBR) in Using chambers. All test drug additions are to the lumenal bath with half-log dose addition protocols (from 1×10^−11 M to 3×10^−5 M), and the cumulative change in ISC (inhibition) recorded. All drugs are prepared in dimethyl sulfoxide as stock solutions at a concentration of 1×10^−2 M and stored at −20° C. Eight preparations are typically run in parallel; two preparations per run incorporate amiloride and/or benzamil as positive controls. After the maximal concentration ([…]) is administered, the lumenal bath is exchanged three times with fresh drug-free KBR solution, and the resultant ISC measured after each wash for approximately 5 minutes in duration. Reversibility is defined as the percent return to the baseline value for sodium current after the third wash. All data from the voltage clamps are collected via a computer interface and analyzed off-line. Dose-effect relationships for all compounds are considered and analyzed by the Prism 3.0 program. IC50 values, maximal effective concentrations, and reversibility are calculated and compared to amiloride and benzamil as positive controls. […] The results for the compounds of the present invention are reported as fold-enhancement values relative to amiloride.

Each structure is given as a SMILES string.

Usually melting point stands for the temperature, or range, at which the solid turns liquid.

In the case of `NC(=O)CN(CCOc1ccc(CCCCNC(N)=NC(=O)c2nc(Cl)c(N)nc2N)cc1)CC(N)=O` [ALB 28062, 2-{Carbamoylmethyl-[2-(4-{4-[N′-(3,5-diamino-6-chloropyrazine-2-carbonyl)-guanidino]butyl}phenoxy)ethyl]amino}acetamide], the melting point is 98 to 100 °C (dec.). The same measure, in the same setting: to `COC(=O)CC(CC(=O)OC)NCCOc1ccc(CCCCNC(N)=NC(=O)c2nc(Cl)c(N)nc2N)cc1` [ALB 28588, 3-[2-(4-{4-[N′-(3,5-Diamino-6-chloropyrazine-2-carbonyl)guanidino]butyl}phenoxy)ethylamino]pentanedioic acid dimethyl ester] belongs 84 to 88 °C; to `NC(=O)CNCCOc1ccc(CCCCNC(N)=NC(=O)c2nc(Cl)c(N)nc2N)cc1` [ALB 28683, 2-[2-(4-{4-[N′-(3,5-Diamino-6-chloropyrazine-2-carbonyl)guanidino]butyl}-phenoxy)ethylamino]acetamide], 92 to 94 °C (dec.). With `NC(=NC(=O)c1nc(Cl)c(N)nc1N)NCCCCc1ccc(OCCNCC(=O)O)cc1` [ALB 28897, [2-(4-{4-[N′-(3,5-Diamino-6-chloropyrazine-2-carbonyl)guanidino]butyl}-phenoxy)ethylamino]acetic acid], the melting point is 110 to 112 °C (dec.). On to `N=C(NCCCCc1ccc(OCCN(CC(N)=O)CC(N)=O)cc1)NC(=O)c1nc(Cl)c(N)nc1N` [Compound 1], for which the “Fold Amiloride” value in series [1] amounted to 77. On to `N=C(NCCCCc1ccc(OCCN(CC(=O)O)CC(=O)O)cc1)NC(=O)c1nc(Cl)c(N)nc1N` [Compound 2], for which the “Fold Amiloride” value in series [1] was 16. In the case of `N=C(NCCCCc1ccc(OCCNCC(N)=O)cc1)NC(=O)c1nc(Cl)c(N)nc1N` [Compound 3], the “Fold Amiloride” value in series [1] was 10.

Take `COC(=O)CC(CC(=O)OC)NCCOc1ccc(CCCCNC(=N)NC(=O)c2nc(Cl)c(N)nc2N)cc1` [Compound 4]: in series [1], the “Fold Amiloride” value worked out at 81.
